Test results: publication PMC8067632, “Assessment and Development of the Antifungal Agent Caspofungin for Aerosolized Pulmonary Delivery” (Pharmaceutics, 2021)

Tests used:
Assay in all cases: Broth microdilution MEC
Format in all cases: cell-based
Settings in all cases: CLSI broth microdilution, microscopy, duplicate
[1] = test system: Aspergillus fumigatus ATCC 13073
Description: (§1) Antifungal potency of the test article(s) was measured using the in vitro broth microdilution assay under test conditions described by the Clinical and Laboratory Standards Institute. Minimum Inhibitory Concentration (MIC) is defined as the lowest concentration of an agent that causes a specified reduction in visible growth of the microorganism. Minimum Effective Concentration (MEC) is defined as the lowest concentration of an agent that leads to the growth of small, rounded, compact hyphal forms, as compared to the hyphal growth typically seen in the growth control well. MIC values were determined for 9 Candida spp., and MEC values were determined for filamentous fungus species (Aspergillus fumigatus and Trichophyton rubrum). Details of the test article preparations and methodologies are described in Supplementary Material S1.
(§2) Following incubation, the test plates were visually examined and wells were scored for growth or complete growth inhibition to define the MIC values. Microscopy examination was used to determine the MEC values. Each test substance was evaluated in duplicate and the results are the duplicate test values. Vehicle-control and an active reference agent were used as blank and positive controls, respectively. […]
(§3) S1. In Vitro Testing, Test Article Preparations
(§4) The 5 mg/mL stock solution was prepared as the following. The refrigerated vial was equilibrated to room temperature. Test vial was reconstituted aseptically with 10.5 mL 0.9% NaCl. The powder was dissolved completely, mixing until a clear solution was ob-tained. The final concentration was 5.0 mg/mL of caspofungin freebase. The reconstituted solution was stable for 1 hr at room temperature. The 5 mg/mL stock solution was then […]
(§5) The refrigerated vial was equilibrated to room temperature. The powder was dis-solved completely, mixing until a clear solution was obtained. Test vial was reconstituted aseptically with 1.8 mL 0.9% NaCl. The white to off-white powder was dissolved com-pletely, mixing gently until a clear solution was obtained. The final concentration was 5.0 mg/mL of caspofungin freebase. The reconstituted solution was used within 1 hr at room temperature. The 5 mg/mL stock solution was then diluted with 0.9% NaCl to prepare the […]
(§6) 1.3. Caspofungin Diacetate
(§7) The 5 mg/mL API stock solution was prepared as the following. The refrigerated vial was equilibrated to room temperature. Test vial was filled aseptically with 1.8 mL 0.9%
(§8) NaCl. The powder was dissolved completely, mixing until a clear solution was obtained.
(§9) The final concentration was 5.0 mg/mL of caspofungin freebase. The reconstituted solu-tion was used within 1 hr at room temperature. The 5 mg/mL stock solution was then […]
(§10) g compound, corresponding to 1.2 mg active compound with a correction factor of 2.40 was added 0.375 mL of water for injection to generate the 3.2 mg/mL working stock solution for testing. The 3.2 mg/mL working stock solution was 2-fold diluted seri-ally in 0.9% NaCl to prepare a total of eleven 50-fold stock solutions, concentrations rang-ing from 3.2 to 0.003 mg/mL. A 4 μL aliquot of each dilution was added to 196 μL of broth medium seeded with the organism suspension in wells of a 96 well plate (fungal cell count: 1 x 10^3 to 1 x 10^4 colony forming units per mL). The final volume was 200 μL in each […]

[2] = test system: Aspergillus fumigatus ATCC204305
Description: as §1, §2, §3, §4, §5, §6, §7, §8, §9, §10

[3] = test system: Trichophyton rubrum ATCC 10218
Description: as §1, §2, §3, §4, §5, §6, §7, §8, §9, §10

CC[C@H](C)C[C@H](C)CCCCCCCCC(=O)N[C@H]1C[C@@H](O)[C@@H](NCCN)NC(=O)[C@@H]2[C@@H](O)CCN2C(=O)[C@H]([C@H](O)CCN)NC(=O)[C@H]([C@H](O)[C@@H](O)c2ccc(O)cc2)NC(=O)[C@@H]2C[C@@H](O)CN2C(=O)[C@H]([C@@H](C)O)NC1=O [Caspofungin Diacetate]
MEC [1]: 0.0625 µg/mL
MEC [2]: 0.125 µg/mL
MEC [3]: 0.125 µg/mL
